We go through 8 compounds from patent US20230203029A1 (priority 2020, published 2023).

pIC50: −log10 of the molar value.

The target in assay [1] is T1, Ba/F3 Pro B-cell line expressing BCR-human AXL kinase domain fusion protein (Homo sapiens, UniProt P30530).
T1 construct: P11274 (Breakpoint cluster region protein)
T1 sequence (P30530 536-807 limits assumed): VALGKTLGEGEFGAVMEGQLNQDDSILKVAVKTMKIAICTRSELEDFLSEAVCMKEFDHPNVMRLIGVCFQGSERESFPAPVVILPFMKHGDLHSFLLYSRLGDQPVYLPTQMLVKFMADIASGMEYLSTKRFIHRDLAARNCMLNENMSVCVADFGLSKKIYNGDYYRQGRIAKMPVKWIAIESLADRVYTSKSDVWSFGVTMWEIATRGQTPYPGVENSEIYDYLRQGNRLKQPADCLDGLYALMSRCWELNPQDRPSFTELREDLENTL
Nature of the assay: Assay 5 Ba/F3 cell survival assay, BCR-Axl. It counts as cell-based. The conditions noted are these: read-out: BCR-Axl Ba/F3 IC50, 48 h, CellTiter-Glo. Here is the method:
(§1) Assay 5—Ba/F3 Cell Survival Assays.
(§2) The inhibitory potencies of compounds were assessed in a Ba/F3 cell survival assay, using the Ba/F3 Pro B-cell line, recombinantly expressing a BCR-human AXL kinase domain fusion protein (pACD320/AXL, Advanced Cellular Dynamics Inc), TEL-human MERTK fusion domain (pACD1000/MERTK, Advanced Cellular Dynamics Inc), TEL-human Tyro3 fusion domain (pACD1000/TYRO3, Advanced Cellular Dynamics Inc), or control TEL-none (ACD320, Advanced Cellular Dynamics Inc) BRC-none constructs (ACD1000, Advanced Cellular Dynamics Inc). 10 ng/mL recombinant murine IL3 (R&D, 403-ML-010) was included in the media when propagating negative control TEL-none or BCR-none lines only. […] The final assay DMSO concentration was 0.25%. Compound incubations were conducted for 48 h at 37° C./5% CO2, after which cell plate was equilibrated at room temperature for 20 minutes prior to assessing viability. 15 μl of Promega CellTiter-Glo reagent (G7572) was added to each well for 2 min on an orbital shaker to induce cell lysis.
(§3) The plate was then equilibrated for 5 min at room temperature and luminescence read on a BMG Pherastar FSX using the LUM plus optic module. […] Competition curves were then fit to a 4 parameter logistic equation including a variable slope factor to determine the IC50 (compound concentration causing a half-maximal inhibition of cell survival).
Background: Cellular ATP, detected with luciferase, serves as a proxy for viable cell number.

Assay [2] concerns the target T2, human MERTK cytoplasmic domain (Homo sapiens, UniProt Q12866).
T2 construct: human MERTK cytoplasmic domain (Carna Biosciences 08-108); purchased Carna Biosciences 08-108
As to the kind of experiment: biochemical. The settings on record: 30 uM ATP; read-out: Assay 1a Mer IC50 30 uM ATP. The procedure: Assay 1a—MERTK HTRF KinEASE-TK Assay
The enzymatic reaction was carried out for 30 min at room temperature. 10 μL TK Antibody-Cryptate/Streptavidin-XL665 (Cisbio 610SAXLG) was then added for 60 min, including EDTA containing detection buffer (Cisbio 62SDBRDF) to stop the reaction.

Assay [3] has as its target T3, Ba/F3 Pro B-cell line expressing TEL-human MERTK fusion domain (Homo sapiens, UniProt Q12866).
T3 sequence (Q12866 587-858 limits assumed): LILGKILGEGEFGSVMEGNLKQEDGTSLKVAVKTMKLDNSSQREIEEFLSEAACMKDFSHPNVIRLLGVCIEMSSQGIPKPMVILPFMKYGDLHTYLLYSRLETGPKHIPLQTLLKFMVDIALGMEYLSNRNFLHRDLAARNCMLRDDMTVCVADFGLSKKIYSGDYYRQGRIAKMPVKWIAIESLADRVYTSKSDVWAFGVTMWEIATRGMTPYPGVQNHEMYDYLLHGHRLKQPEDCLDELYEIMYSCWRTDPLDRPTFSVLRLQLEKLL
It counts as cell-based. The conditions noted are these: cell survival, 48 h, CellTiter-Glo; read-out: TEL-MERTK Ba/F3 IC50. The procedure:
as §1, §2, §3

Assay [4] concerns the target T4, Ba/F3 Pro B-cell line expressing TEL-human Tyro3 fusion domain (Homo sapiens, UniProt Q06418).
T4 sequence (Q06418 518-790 limits assumed): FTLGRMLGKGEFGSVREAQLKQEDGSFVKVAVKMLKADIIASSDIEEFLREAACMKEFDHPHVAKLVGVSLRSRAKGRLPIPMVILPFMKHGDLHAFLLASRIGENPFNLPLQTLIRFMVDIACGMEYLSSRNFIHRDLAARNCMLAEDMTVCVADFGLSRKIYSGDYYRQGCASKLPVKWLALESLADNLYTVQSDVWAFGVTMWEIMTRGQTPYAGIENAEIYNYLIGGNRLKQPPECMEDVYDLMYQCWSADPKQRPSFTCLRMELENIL
It counts as cell-based. The conditions noted are these: cell survival, 48 h, CellTiter-Glo. The procedure:
as §1
as §2, with “only. Cells were maintained in RMPI 1640 (Corning 15-040-CV) culture media containing 10% heat inactivated semi-synthetic FBS (RMBIO FGR-BBT), 2 mM L-Glutamine (Sigma, G7513), 100 IU/mL Penicillin-[…] Streptomycin (Sigma, P4333), and 500 ng/mL Puromycin (Sigma, P8833). Experiments were performed in 50 μl growth media, including the test compounds of interest, and dispensing 5000 cells/well in logarithmic-phase growth into a 384 well white Optiplate (Perkin Elmer 6007299).” for “only.”
The plate was then equilibrated for 5 min at room temperature and luminescence read on a BMG Pherastar FSX using the LUM plus optic module. Data were normalised to measurements in the absence of competing compound (0% inhibition). Competition curves were then fit to a 4 parameter logistic equation including a variable slope factor to determine the IC50 (compound concentration causing a half-maximal inhibition of cell survival).

In assay [5] the target is T5, human AXL cytoplasmic domain (Homo sapiens, UniProt P30530).
T5 construct: human AXL cytoplasmic domain (Thermo Fisher A31515); purchased Thermo Fisher A31515
T5 sequence (P30530 473-894 limits assumed): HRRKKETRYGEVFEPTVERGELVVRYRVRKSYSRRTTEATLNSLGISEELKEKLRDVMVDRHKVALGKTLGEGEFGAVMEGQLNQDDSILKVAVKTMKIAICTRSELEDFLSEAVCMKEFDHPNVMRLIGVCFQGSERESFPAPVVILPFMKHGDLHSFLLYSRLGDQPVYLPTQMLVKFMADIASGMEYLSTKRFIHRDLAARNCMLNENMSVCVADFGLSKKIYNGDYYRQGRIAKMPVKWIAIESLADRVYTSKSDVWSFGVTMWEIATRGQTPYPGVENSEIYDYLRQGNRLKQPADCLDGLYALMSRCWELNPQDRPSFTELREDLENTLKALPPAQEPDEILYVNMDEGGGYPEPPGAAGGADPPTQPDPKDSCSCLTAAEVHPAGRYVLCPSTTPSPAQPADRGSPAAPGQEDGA
As to the kind of experiment: Assay 1b AXL HTRF KinEASE-TK assay. It counts as biochemical. The procedure: Assay 1b—AXL HTRF KinEASE-TK Assay
Compound inhibition of human AXL cytoplasmic domain (Thermo Fisher A31515) enzymatic activity was tested via the HTRF KinEASE-tyrosine kinase (TK) kit (Cisbio 62TK0PEC). Experiments were performed in 20 μl enzymatic buffer (Cisbio 62EZBFDD) supplemented with 5 mM MgCl2, 1 mM MnCl2, 1 mM DTT, 50 nM SEB (Cisbio, 61SEBALB), with 5 nM of AXL and the test compounds of interest. […] The enzymatic reaction was carried out for 30 min at room temperature. 10 μL TK Antibody-Cryptate/Streptavidin-XL665 (Cisbio 610SAXLG) was then added for 60 min, including EDTA containing detection buffer (Cisbio 62SDBRDF) to stop the reaction. The plate was read on a BMG Pherastar FSX using a HTRF 337/620/665 optical module to excite the terbium donor at 337 nm, and record donor emission at 620 nm and acceptor fluorophore emission at 665 nm. From this the FRET ratio (acceptor 665 nm/donor 620 nm) for each data point was calculated. […] Competition curves were then fit to a 4 parameter logistic equation including a variable slope factor to determine the IC50 (compound concentration that inhibits 50% of AXL activity).
Background: In TR-FRET formats the signal depends on donor and acceptor labels being close together.

T2 sequence (Q12866 527-999): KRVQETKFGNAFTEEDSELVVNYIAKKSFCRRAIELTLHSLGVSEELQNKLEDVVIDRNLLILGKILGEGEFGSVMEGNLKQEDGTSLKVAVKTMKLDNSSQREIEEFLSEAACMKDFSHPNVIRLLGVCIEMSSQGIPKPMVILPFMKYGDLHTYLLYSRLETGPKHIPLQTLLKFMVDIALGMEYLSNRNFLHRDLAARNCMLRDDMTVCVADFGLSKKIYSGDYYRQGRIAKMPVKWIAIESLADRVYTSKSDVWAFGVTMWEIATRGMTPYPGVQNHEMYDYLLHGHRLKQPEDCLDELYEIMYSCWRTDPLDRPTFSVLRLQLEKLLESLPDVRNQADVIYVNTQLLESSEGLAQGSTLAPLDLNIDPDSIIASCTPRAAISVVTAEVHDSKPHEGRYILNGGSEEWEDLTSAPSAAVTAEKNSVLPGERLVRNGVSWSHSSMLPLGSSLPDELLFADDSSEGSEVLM

In the case of `CN1CCC(NC(=O)c2cc3c(Oc4ccc(NC(=O)c5cccn(-c6ccc(F)cc6)c5=O)cc4)ccnc3cn2)CC1` [Example 8.1, 4-[4-[[1-(4-fluorophenyl)-2-oxo-pyridine-3-carbonyl]amino]phenoxy]-N-(1-methyl-4-piperidyl)-1,7-naphthyridine-6-carboxamide], the pIC50 in assay [1] was 8.15; in assay [2], 8.40; in assay [3], 7.77; in assay [4], 7.32; in assay [5], 7.55.

As for `CC(C)n1cc(C(=O)Nc2ccc(Oc3ccnc4cnc(C(=O)NC5CCN(C)CC5)cc34)cc2)c(=O)n(-c2ccc(F)cc2)c1=O` [Example 8.2, 4-[4-[[3-(4-fluorophenyl)-1-isopropyl-2,4-dioxo-pyrimidine-5-carbonyl]amino]phenoxy]-N-(1-methyl-4-piperidyl)-1,7-naphthyridine-6-carboxamide], the pIC50 in assay [1] was 8.52; in assay [2], 8.00; in assay [3] it was 7.52; in assay [4] it was 6.92; in assay [5] it was 8.00.

On to `CC(C)n1cc(C(=O)Nc2ccc(Oc3ccnc4cnc(C(=O)NC5CCN(C)CC5)cc34)cc2)c(=O)n(-c2ccc(F)cn2)c1=O` [Example 9, 4-[4-[[3-(5-Fluoro-2-pyridyl)-1-isopropyl-2,4-dioxo-pyrimidine-5-carbonyl]amino]phenoxy]-N-(1-methyl-4-piperidyl)-1,7-naphthyridine-6-carboxamide], for which the pIC50 is 8.22 in assay [1]; 7.85 in assay [2]; 7.07 in assay [3]; 6.60 in assay [4]; 7.96 in assay [5].

`CC(C)n1cc(C(=O)Nc2ccc(Oc3ccnc4cnc(C(=O)NC5CCN(C)CC5)cc34)cc2)c(=O)n(-c2cc(F)cc(F)c2)c1=O` [Example 9.1, 4-[4-[[3-(3,5-difluorophenyl)-1-isopropyl-2,4-dioxo-pyrimidine-5-carbonyl]amino]phenoxy]-N-(1-methyl-4-piperidyl)-1,7-naphthyridine-6-carboxamide]: the pIC50 was 7.60 in assay [1]; 7.92 in assay [2]; below 5.60 in assay [3]; below 5.60 in assay [4]; 7.89 in assay [5].

As to `O=C(Nc1ccc(Oc2ccnc3cnc(N4CCNCC4)cc23)cn1)c1cccn(-c2ccc(F)cc2)c1=O` [Example 10, 1-(4-fluorophenyl)-2-oxo-N-[5-[(6-piperazin-1-yl-1,7-naphthyridin-4-yl)oxy]-2-pyridyl]pyridine-3-carboxamide], the pIC50 is 7.55 in assay [1]; 8.30 in assay [2]; 7.62 in assay [3]; 6.83 in assay [4]; 7.54 in assay [5].

Regarding `O=C(Nc1ccc(Oc2ccnc3cnc(N4CCN(C5COC5)CC4)cc23)cn1)c1cccn(-c2ccc(F)cc2)c1=O` [Example 10.2, 1-(4-fluorophenyl)-N-[5-[[6-[4-(oxetan-3-yl)piperazin-1-yl]-1,7-naphthyridin-4-yl]oxy]-2-pyridyl]-2-oxo-pyridine-3-carboxamide], the pIC50 in assay [1] is 7.85; in assay [2], 8.70; in assay [3], 7.77; in assay [4], 6.40; in assay [5], 7.70.

Turning to `CN1CCC(NC(=O)c2cc3c(Oc4ccc(NC(=O)c5cccn(-c6ccc(F)cc6)c5=O)nc4)ccnc3cn2)CC1` [Example 11, 4-[[6-[[1-(4-fluorophenyl)-2-oxo-pyridine-3-carbonyl]amino]-3-pyridyl]oxy]-N-(1-methyl-4-piperidyl)-1,7-naphthyridine-6-carboxamide], the pIC50 was 7.49 in assay [1]; 8.40 in assay [2]; 7.28 in assay [3]; 6.60 in assay [4]; 7.11 in assay [5].

Consider `CC(C)n1cc(C(=O)Nc2ccc(Oc3ccnc4cnc(N5CCNCC5)cc34)cc2)c(=O)n(-c2ccc(F)cc2)c1=O` [Example 12.5, 3-(4-fluorophenyl)-1-isopropyl-2,4-dioxo-N-[4-[(6-piperazin-1-yl-1,7-naphthyridin-4-yl)oxy]phenyl]pyrimidine-5-carboxamide], for which the pIC50 in assay [1] is 8.30; in assay [2] it was 8.52; in assay [3] it was 7.42; in assay [4], 6.37; in assay [5] it was 8.30.
